Measured values from patent publication US20240024488A1, “COMPOUNDS AND USES THEREOF” (Foghorn Therapeutics Inc., priority 2020, published 2024).

What was measured:
[1] = target: T1, HiBit-BRG1 fusion protein (Homo sapiens, UniProt P51532); experiment: HiBiT-BRG1 cell-based degradation assay (Nano-Glo HiBiT Lytic Detection, 24 h); conditions: HeLa cell line expressing HiBit-BRG1 and LgBit; for Dmax: read-out: BRG1 HiBit Degradation Maximum (%); for DC50: read-out: BRMG1 HiBit Degradation IC50
T1 construct: expressed in transfected cells
T1 sequence (P51532 whole entry, the tested form may be a part): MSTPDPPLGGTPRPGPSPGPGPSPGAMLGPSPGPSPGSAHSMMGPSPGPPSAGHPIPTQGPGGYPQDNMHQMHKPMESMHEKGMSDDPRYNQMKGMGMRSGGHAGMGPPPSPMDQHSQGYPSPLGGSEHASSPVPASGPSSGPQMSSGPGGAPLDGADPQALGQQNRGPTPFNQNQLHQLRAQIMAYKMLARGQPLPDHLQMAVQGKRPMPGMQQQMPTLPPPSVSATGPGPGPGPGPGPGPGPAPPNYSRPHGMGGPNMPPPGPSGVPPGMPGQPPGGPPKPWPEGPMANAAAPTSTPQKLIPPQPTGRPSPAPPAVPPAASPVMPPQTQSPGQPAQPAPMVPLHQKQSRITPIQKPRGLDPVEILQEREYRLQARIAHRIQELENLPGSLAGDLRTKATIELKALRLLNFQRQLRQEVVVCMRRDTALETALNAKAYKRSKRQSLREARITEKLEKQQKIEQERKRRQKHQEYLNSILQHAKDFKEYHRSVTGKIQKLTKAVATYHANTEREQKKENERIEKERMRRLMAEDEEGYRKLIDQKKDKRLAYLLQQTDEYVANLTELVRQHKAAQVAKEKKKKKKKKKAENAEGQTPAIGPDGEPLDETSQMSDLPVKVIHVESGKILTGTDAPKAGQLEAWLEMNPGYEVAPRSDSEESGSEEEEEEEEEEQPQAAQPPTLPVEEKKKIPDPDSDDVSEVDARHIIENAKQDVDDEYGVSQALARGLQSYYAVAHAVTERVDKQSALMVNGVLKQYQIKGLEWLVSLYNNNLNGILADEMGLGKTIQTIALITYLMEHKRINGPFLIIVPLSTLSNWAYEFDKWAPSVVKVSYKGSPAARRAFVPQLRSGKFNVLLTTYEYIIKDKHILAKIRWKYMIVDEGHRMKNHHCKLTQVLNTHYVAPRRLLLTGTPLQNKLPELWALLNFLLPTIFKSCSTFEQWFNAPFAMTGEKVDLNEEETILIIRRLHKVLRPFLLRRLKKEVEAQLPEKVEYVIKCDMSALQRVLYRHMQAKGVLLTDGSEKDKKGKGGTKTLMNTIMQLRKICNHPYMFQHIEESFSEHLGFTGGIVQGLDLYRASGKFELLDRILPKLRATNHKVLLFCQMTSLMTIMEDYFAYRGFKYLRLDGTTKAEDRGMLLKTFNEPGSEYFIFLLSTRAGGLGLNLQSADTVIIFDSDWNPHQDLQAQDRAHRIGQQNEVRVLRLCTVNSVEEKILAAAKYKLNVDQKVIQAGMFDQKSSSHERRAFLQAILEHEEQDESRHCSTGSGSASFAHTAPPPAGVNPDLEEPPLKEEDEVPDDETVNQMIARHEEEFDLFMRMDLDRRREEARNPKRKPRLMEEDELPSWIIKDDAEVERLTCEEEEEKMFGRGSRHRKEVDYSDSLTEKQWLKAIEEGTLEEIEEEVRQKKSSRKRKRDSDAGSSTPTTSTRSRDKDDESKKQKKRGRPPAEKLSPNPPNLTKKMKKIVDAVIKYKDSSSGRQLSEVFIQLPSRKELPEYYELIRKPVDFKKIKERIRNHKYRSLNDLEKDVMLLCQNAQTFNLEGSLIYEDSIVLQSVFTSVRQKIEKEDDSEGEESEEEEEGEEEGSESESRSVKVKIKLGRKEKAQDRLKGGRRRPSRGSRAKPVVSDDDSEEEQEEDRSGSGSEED
Summary of the method: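 HeLa cells stably expressing HiBit-BRG1 plus LgBit; compound exposure 24 h; Nano-Glo HiBiT lytic luminescence; % degradation vs DMSO (0%) and 2 μM standard BRM/BRG1 degrader (100%).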

HiBit-BRM fusion protein = target: T2, HiBit-BRM fusion protein (Homo sapiens, UniProt P51531); experiment: HiBiT-BRM cell-based degradation assay (Nano-Glo HiBiT Lytic Detection, 24 h); conditions: HeLa cell line expressing HiBiT-BRM; for DC50: read-out: BRM HiBit Degradation IC50
T2 construct: expressed in transfected cells
T2 sequence (P51531 whole entry, the tested form may be a part): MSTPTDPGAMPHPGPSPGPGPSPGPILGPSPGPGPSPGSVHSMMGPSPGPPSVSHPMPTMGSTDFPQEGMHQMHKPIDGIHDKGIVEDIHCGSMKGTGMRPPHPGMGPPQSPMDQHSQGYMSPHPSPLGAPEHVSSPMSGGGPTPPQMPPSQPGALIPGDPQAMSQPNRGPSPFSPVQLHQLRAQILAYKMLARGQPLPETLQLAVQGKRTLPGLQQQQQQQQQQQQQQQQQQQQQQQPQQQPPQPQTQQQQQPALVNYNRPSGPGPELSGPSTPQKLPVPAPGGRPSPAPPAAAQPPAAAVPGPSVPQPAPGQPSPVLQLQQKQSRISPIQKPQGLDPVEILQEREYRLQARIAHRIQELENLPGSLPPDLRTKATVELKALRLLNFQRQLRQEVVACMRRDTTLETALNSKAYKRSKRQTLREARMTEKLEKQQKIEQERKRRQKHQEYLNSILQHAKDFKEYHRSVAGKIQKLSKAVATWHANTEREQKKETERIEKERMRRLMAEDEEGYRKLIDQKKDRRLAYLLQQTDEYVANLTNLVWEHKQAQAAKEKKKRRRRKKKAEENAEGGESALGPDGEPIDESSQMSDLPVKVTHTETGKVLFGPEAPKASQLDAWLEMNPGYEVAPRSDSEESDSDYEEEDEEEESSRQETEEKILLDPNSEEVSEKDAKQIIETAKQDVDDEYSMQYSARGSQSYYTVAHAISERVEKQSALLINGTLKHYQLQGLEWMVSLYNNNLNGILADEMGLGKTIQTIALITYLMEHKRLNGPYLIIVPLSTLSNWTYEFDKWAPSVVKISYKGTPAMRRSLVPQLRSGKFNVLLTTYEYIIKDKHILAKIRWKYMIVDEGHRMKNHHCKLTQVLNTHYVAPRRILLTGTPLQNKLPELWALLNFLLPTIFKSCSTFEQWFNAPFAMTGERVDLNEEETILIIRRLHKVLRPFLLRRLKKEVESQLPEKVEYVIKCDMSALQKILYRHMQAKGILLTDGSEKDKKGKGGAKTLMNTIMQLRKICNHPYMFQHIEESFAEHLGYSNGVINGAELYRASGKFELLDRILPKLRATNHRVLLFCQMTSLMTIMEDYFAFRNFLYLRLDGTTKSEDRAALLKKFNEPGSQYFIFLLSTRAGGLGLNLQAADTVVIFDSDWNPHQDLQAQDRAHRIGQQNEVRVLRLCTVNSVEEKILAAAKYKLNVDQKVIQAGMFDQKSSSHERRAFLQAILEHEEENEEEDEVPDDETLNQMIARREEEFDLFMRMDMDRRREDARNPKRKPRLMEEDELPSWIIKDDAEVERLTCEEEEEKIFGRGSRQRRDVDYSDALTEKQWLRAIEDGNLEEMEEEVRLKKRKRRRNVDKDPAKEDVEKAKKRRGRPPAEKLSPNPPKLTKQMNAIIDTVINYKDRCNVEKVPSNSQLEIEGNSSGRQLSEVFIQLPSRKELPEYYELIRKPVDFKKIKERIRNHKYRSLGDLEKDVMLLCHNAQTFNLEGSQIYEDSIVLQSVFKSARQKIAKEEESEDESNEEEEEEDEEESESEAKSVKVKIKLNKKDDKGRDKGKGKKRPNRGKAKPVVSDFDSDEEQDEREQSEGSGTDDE
Summary of the method: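 Percent BRM loss was derived from HiBiT luminescence relative to DMSO-treated cells and cells given 2 μM of a known BRM/BRG1 degrader. Treatment lasted 24 h in HiBiT-BRM HeLa cells, with a top final concentration of 30 μM.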

| Compound | Dmax [1] [%] | BRM HiBit Degradation Maximum (%) (HiBit-BRM fusion protein) | DC50 [1] [nM] | DC50 (HiBit-BRM fusion protein) [nM] |
| --- | --- | --- | --- | --- |
| Cc1ncsc1-c1ccc(CNC(=O)[C@@H]2C[C@@H](O)CN2C(=O)[C@@H](NC(=O)CCCN2CC(c3cc4cc(-c5ccccc5O)nnc4[nH]3)C2)C(C)(C)C)cc1 (racemic) [Compound 60, (2S,4R)-4-hydroxy-1-((S)-2-(4-(3-(3-(2-hydroxyphenyl)-7H-pyrrolo[2,3-c]pyridazin-6-yl)azetidin-1-yl)butanamido)-3,3-dimethylbutanoyl)-N-(4-(4-methylthiazol-5-yl)benzyl)pyrrolidine-2-carboxamide] | < 50 | C (“C” indicates maximum degradation < 50%) |  |  |
| Cc1ncsc1-c1ccc([C@H](C)NC(=O)C2C[C@@H](O)CN2C(=O)[C@@H](c2cc(OCCN3C[C@H]4C[C@@H](c5[nH]c6nnc(-c7ccccc7O)cc6c5C)C[C@H]4C3)no2)C(C)C)cc1 (single isomer, unassigned) [Compound 108] | > 75 | A (“A” indicates maximum degradation ≥ 75%) | > 10 | < 10 |
| Cc1ncsc1-c1ccc([C@H](C)NC(=O)[C@@H]2C[C@@H](O)CN2C(=O)[C@@H](c2cc(N3CCN(C(=O)[C@H]4CCc5[nH]c6nnc(-c7ccccc7O)cc6c5C4)CC3)no2)C(C)C)cc1 (single isomer, unassigned) [Compound 188] | > 75 | A (“A” indicates maximum degradation ≥ 75%) | > 100 | > 100 |
| Cc1ncsc1-c1ccc([C@H](C)NC(=O)[C@@H]2C[C@@H](O)CN2C(=O)[C@@H](c2cc(N3CCC(C(=O)N4CCc5[nH]c6nnc(-c7ccccc7O)cc6c5[C@@H]4C)CC3)no2)C(C)C)cc1 (racemic) [Compound 86, (2S,4R)-4-hydroxy-1-((R)-2-(3-(4-((S)-3-(2-hydroxyphenyl)-5-methyl-6,7,8,9-tetrahydro-5H-pyrido[3′,4′:4,5]pyrrolo[2,3-c]pyridazine-6-carbonyl)piperidin-1-yl)isoxazol-5-yl)-3-methylbutanoyl)-N-((S)-1-(4-(4-methylthiazol-5-yl)phenyl)ethyl)pyrrolidine-2-carboxamide] | < 50 | A (“A” indicates maximum degradation ≥ 75%) |  | > 100 |
| Cc1ncsc1-c1ccc([C@H](C)NC(=O)[C@@H]2C[C@@H](O)CN2C(=O)[C@@H](c2cc(N3CCN(CC45CC(c6cc7cc(-c8ccccc8O)nnc7[nH]6)(C4)C5)CC3)no2)C(C)C)cc1 (single isomer, unassigned) [Compound 233] | > 75 | A (“A” indicates maximum degradation ≥ 75%) | > 10 | > 10 |
| Cc1ncsc1-c1ccc([C@H](C)NC(=O)[C@@H]2C[C@@H](O)CN2C(=O)[C@@H](c2cc(OCC(=O)N[C@H]3CCc4[nH]c5nnc(-c6ccccc6O)cc5c4C3)no2)C(C)C)cc1 (single isomer, unassigned) [Compound 168] | < 50 | A (“A” indicates maximum degradation ≥ 75%) |  | > 10 |
| O=C1CCC(N2C(=O)c3cccc(OCCCCCCC(=O)N4CC(c5cc6cc(-c7ccccc7O)nnc6[nH]5)C4)c3C2=O)C(=O)N1 (centres unmarked) [Compound 31, 2-(2,6-dioxopiperidin-3-yl)-4-((7-(3-(3-(2-hydroxyphenyl)-7H-pyrrolo[2,3-c]pyridazin-6-yl)azetidin-1-yl)-7-oxoheptyl)oxy)isoindoline-1,3-dione] | < 50 | C (“C” indicates maximum degradation < 50%) |  |  |
| Cc1ncsc1-c1ccc([C@H](C)NC(=O)[C@@H]2C[C@@H](O)CN2C(=O)[C@@H](c2cc([C@H]3CC[C@@H](c4cnc(N5CCC(c6c[nH]c7nnc(-c8ccccc8O)cc67)CC5)nc4)CC3)no2)C(C)C)cc1 (racemic) [Compound 68, (2S,4R)-4-hydroxy-N-[(1S)-1-[4-(4-methyl-1,3-thiazol-5-yl)phenyl]ethyl]-1-[(2R)-3-methyl-2-{3-[(1s,4s)-4-(2-{4-[3-(2-hydroxyphenyl)-7H-pyrrolo[2,3-c]pyridazin-5-yl]piperidin-1-yl}pyrimidin-5-yl)cyclohexyl]-1,2-oxazol-5-yl}butanoyl]pyrrolidine-2-carboxamide] | < 50 | A (“A” indicates maximum degradation ≥ 75%) |  | > 10 |
| Cc1ncsc1-c1ccc([C@H](C)NC(=O)[C@@H]2C[C@@H](O)CN2C(=O)C(c2cc(N3CCC(C(=O)N4CC(c5cc6cc(-c7ccccc7O)nnc6[nH]5)C4)CC3)no2)C(C)C)cc1 (mixture of isomers) [Compound 264, (2S,4R)-4-hydroxy-1-((R)-2-(3-(4-(3-(3-(2-hydroxyphenyl)-7H-pyrrolo[2,3-c]pyridazin-6-yl)azetidine-1-carbonyl)piperidin-1-yl)isoxazol-5-yl)-3-methylbutanoyl)-N-((S)-1-(4-(4-methylthiazol-5-yl)phenyl)ethyl)pyrrolidine-2-carboxamide] | < 50 | C (“C” indicates maximum degradation < 50%) |  |  |
| Cc1ncsc1-c1ccc([C@H](C)NC(=O)[C@@H]2C[C@@H](O)CN2C(=O)[C@@H](c2cc(OCCCN[C@H]3CCc4[nH]c5nnc(-c6ccccc6O)cc5c4C3)no2)C(C)C)cc1 [Compound 143, (2S,4R)-4-hydroxy-1-((R)-2-(3-(3-(((S)-3-(2-hydroxyphenyl)-6,7,8,9-tetrahydro-5H-pyridazino[3,4-b]indol-6-yl)amino)propoxy)isoxazol-5-yl)-3-methylbutanoyl)-N-((S)-1-(4-(4-methylthiazol-5-yl)phenyl)ethyl)pyrrolidine-2-carboxamide] | < 50 | A (“A” indicates maximum degradation ≥ 75%) |  | > 100 |
| Cc1ncsc1-c1ccc([C@H](C)NC(=O)[C@@H]2C[C@@H](O)CN2C(=O)[C@@H](c2cc(OCCN(C)Cc3ccc(Cc4cc5cc(-c6ccccc6O)nnc5[nH]4)cc3)no2)C(C)C)cc1 (racemic) [Compound 284] | > 75 | A (“A” indicates maximum degradation ≥ 75%) | > 100 | > 10 |
| O=C1CCC(N2C(=O)c3cccc(OCCOCCOCCC(=O)N4CC(c5cc6cc(-c7ccccc7O)nnc6[nH]5)C4)c3C2=O)C(=O)N1 (centres unmarked) [Compound 23, 2-(2,6-dioxopiperidin-3-yl)-4-(2-(2-(3-(3-(3-(2-hydroxyphenyl)-7H-pyrrolo[2,3-c]pyridazin-6-yl)azetidin-1-yl)-3-oxopropoxy)ethoxy)ethoxy)isoindoline-1,3-dione] | < 50 | C (“C” indicates maximum degradation < 50%) |  |  |
| Cc1ncsc1-c1ccc([C@H](C)NC(=O)[C@@H]2C[C@@H](O)CN2C(=O)[C@@H](c2cc([C@H]3CC[C@H](c4cnc(N5CCC(c6c[nH]c7nnc(-c8ccccc8O)cc67)CC5)nc4)CC3)no2)C(C)C)cc1 (racemic) [Compound 67, (2S,4R)-4-hydroxy-N-[(1S)-1-[4-(4-methyl-1,3-thiazol-5-yl)phenyl]ethyl]-1-[(2R)-3-methyl-2-{3-[(1r,4r)-4-(2-{4-[3-(2-hydroxyphenyl)-7H-pyrrolo[2,3-c]pyridazin-5-yl]piperidin-1-yl}pyrimidin-5-yl)cyclohexyl]-1,2-oxazol-5-yl}butanoyl]pyrrolidine-2-carboxamide] | > 75 | A (“A” indicates maximum degradation ≥ 75%) | > 10 | < 10 |
| Cc1ncsc1-c1ccc(C(C)NC(=O)C2CC(O)CN2C(=O)C(c2cc(OCCN3CC4C(C3)C4c3cc4cc(-c5cc(F)cc(F)c5O)nnc4[nH]3)no2)C(C)C)cc1 [Compound 141, (2S,4R)-1-((R)-2-(3-(2-((1R,5S,6R)-6-(3-(3,5-difluoro-2-hydroxyphenyl)-7H-pyrrolo[2,3-c]pyridazin-6-yl)-3-azabicyclo[3.1.0]hexan-3-yl)ethoxy)isoxazol-5-yl)-3-methylbutanoyl)-4-hydroxy-N-((S)-1-(4-(4-methylthiazol-5-yl)phenyl)ethyl)pyrrolidine-2-carboxamide] | < 50 | A (“A” indicates maximum degradation ≥ 75%) |  | > 10 |
| Cc1ncsc1-c1ccc(CNC(=O)[C@@H]2C[C@@H](O)CN2C(=O)[C@@H](NC(=O)CCCC(=O)N[C@H]2CCc3[nH]c4nnc(-c5ccccc5O)cc4c3C2)C(C)(C)C)cc1 (single isomer, unassigned) [Compound 184] | < 50 | B (“B” indicates maximum degradation ≥ 50%) |  | > 1000 |
| Cc1ncsc1-c1ccc(CNC(=O)[C@@H]2C[C@@H](O)CN2C(=O)[C@@H](NC(=O)CN2CC(c3cc4cc(-c5ccccc5O)nnc4[nH]3)C2)C(C)(C)C)cc1 (racemic) [Compound 61, (2S,4R)-4-hydroxy-1-((S)-2-(2-(3-(3-(2-hydroxyphenyl)-7H-pyrrolo[2,3-c]pyridazin-6-yl)azetidin-1-yl)acetamido)-3,3-dimethylbutanoyl)-N-(4-(4-methylthiazol-5-yl)benzyl)pyrrolidine-2-carboxamide] | > 75 | A (“A” indicates maximum degradation ≥ 75%) | > 1000 | > 1000 |
